Assay results published in patent publication US6506799B1, “Methods of treating cardiovascular diseases, dyslipidemia, dyslipoproteinemia, and hypertension with ether compounds” (Esperion Therapeutics, Inc., priority 1999, dated 2003).

Key:
female obese Zucker rats = experiment: Experiment A: serum lipids, glucose, non-esterified fatty acids and weight gain in obese female Zucker rats after seven days; assay type: in vivo, rat; conditions: 86 mg/kg
Description: Dosing vehicle, Compound A (86 mg/kg of body weight) or troglitazone (120 mg/kg of body weight) was administered to eight week old female obese Zucker rats daily for seven days in the morning by oral gavage in 1.5% carboxymethylcellulose/0.2% Tween-20. Troglitazone was obtained commercially. Finely crushed tablets were suspended in vehicle for dosing. Orbital blood samples were obtained following a six-hour fast prior to the initial dose and also following the seventh dose.
Blood serum was assayed for total cholesterol and triglycerides (FIG. 5), lipoprotein cholesterol profiles (FIG. 6), VLDL plus LDL cholesterol combined (also referred to as apo B containing lipoprotein cholesterol or non-HDL cholesterol), HDL cholesterol, and the ratio of HDL cholesterol to that of VLDL plus LDL cholesterol (FIG. 7), serum glucose, and non-esterified fatty acids (FIG. 8), and percent weight gain (FIG. 9). […] In particular, Compound A caused a marked elevation in HDL cholesterol after one week of treatment. Using the serum total cholesterol values (FIG. 5A) and the lipoprotein cholesterol distribution (FIG. 6), the amount of cholesterol associated with non-HDL (i.e., VLDL plus LDL) and HDL were determined (FIG. 7). […] In contrast, troglitazone reduced non-HDL and HDL cholesterol by 67% and 4%, respectively.

primary rat hepatocytes = experiment: Synthesis of non-saponified and saponified lipids (14C-acetate incorporation) in hepatocytes; assay type: cell-based; conditions: 100 μM; 14C-acetate 2 hr; vs no compound control
Description: A male Sprague-Dawley rat was anesthetized by administration of sodium pentobarbitol by intraparitoneal injection at 50 mg/kg. In situ perfusion of the liver was performed as follows. […] To digest the liver, DSC solution (6.7 mM KCl, 143 mM NaCl, 9.2 mM Na HEPES, 5 mM CaCl2-2H2O, 1.7 mM Fructose, 0.029 mM Phenol red, 0.2% BSA, 100 U/ml collagenase Type I, 93 U/ml Hyaluronidase, 160 BAEE/ml trypsin inhibitor, pH 7.5) was perfused through the liver at a flow rate of 30 ml/min for 6 minutes at a temperature of 37° C. After digestion, cells were dispersed in a solution of DMEM-(DMEM containing 2 mM GlutMax-1, 0.2% BSA, 5% FBS, 12 nM insulin, 1.2 μM hydrocortisone) to stop the digestion process. The crude cell suspension was filtered through three layers of stainless steel mesh with pore sizes of 250, 106, and 75 μm respectively. Filtered cells were centrifuged at 50×g for two minutes and the supernatant discarded. The resulting cell pellet was resuspended in DMEM and centrifuged again. This final cell pellet was resuspended in DMEM+HS solution (DMEM containing 2 mM GlutMax-1, 20 nM delta-aminolevulinic acid, 17.4 mM MEM non-essential amino acids, 20% FBS, 12 nM insulin, 1.2 µM hydrocortisone) and plated to form monolayer cultures at a density of 100×10^3 cells/cm^2 on collagen coated culture dishes. Four hours after initial plating, media was changed to DMEM+(DMEM containing 2 mM GlutMax-1, 20 nM delta-aminolevulinic acid, 17.4 mM MEM non-essential amino acids, 10% FBS, 12 nM insulin, 1.2 μM hydrocortisone) and remained on cells overnight.
To test the effect of illustrative compounds of the invention on synthesis rates of non-saponified and saponified lipids, the monolayer cultures were exposed to 1 μM of lovastatin or 100 μM Compound A, B, D, E or F in DMEM+ containing 1 μCi/ml ^14C-acetate. Control cells were exposed to the same media lacking lovastatin or the test compounds. All cells were exposed to 0.1% DMSO. Metabolic labeling with ^14C-acetate continued for 2 hr at 37° C. After labeling, cells were washed twice with 1 ml of PBS followed by lysing in 1 ml of deionized water. Cells were scraped from the dishes, transferred to glass tubes and sonicated. 2.5 ml of 2:1 chloroform/methanol mixture was added followed by 1.5 ml of Phosphate Buffered Saline (PBS). To correct for extraction efficiency in the upcoming extractions, 3000 dpm of ^3H-cholesterol was added to each tube. Tubes were shaken for 30 min. to extract lipids into the organic phase followed by centrifugation for 10 minutes at 1000×g to separate the organic and aqueous phases. The lower organic phase containing total lipids was removed and placed in a new tube. The organic solution was evaporated under N2. […]

serum glucose (female obese Zucker rats; one week): did not induce a hypoglycemic state
SMILES: CC(C)(CO)CCCCOCCCCC(C)(C)CO [Compound A, 6-(6-hydroxy-5,5-dimethylhexyloxy)-2,2-dimethyl-hexan-1-ol]
change of non-HDL cholesterol (VLDL plus LDL) (female obese Zucker rats; one week): +10.3%
increase of HDL cholesterol (female obese Zucker rats; one week): 3.9 fold
reduction of non-esterified fatty acids (female obese Zucker rats; one week): 52%
reduction of serum triglycerides (female obese Zucker rats; one week): 68%
ratio of HDL/non-HDL cholesterol (female obese Zucker rats; one week treatment, pre-treatment 4.2): 14.9
increase of the ratio of HDL/non-HDL cholesterol (female obese Zucker rats; one week, vs pre-treatment): 3.6 fold
increase of total serum cholesterol (female obese Zucker rats; one week, vs pre-treatment): 3.3 fold
increase in body weight (female obese Zucker rats; seven days, vehicle 6.6%): 5.4%
reduction of the rate of non-saponified lipid synthesis (primary rat hepatocytes): at least 85%
reduction of the rate of saponified lipid synthesis (primary rat hepatocytes): at least 85%
